In brackets after ≈: the same amount, converted by molar mass.
What was measured:
[1] = Metabolic stability in human liver microsomes assessed as intrinsic clearance at 0.5 uM incubated for 40 mins in presence of NADPH; assay type: ADME, Microsome; conditions: read-out: CLH
[2] = molecular target: T1, Nuclear receptor subfamily 1 group I member 2 (Homo sapiens, UniProt O75469); assay: Activation of human PXR in human HepG2 cells co-transfected with CYP3A4-luciferase at 10 uM incubated for 1 day relative to control; conditions: hepg2, 24 h
T1 sequence (O75469 whole entry): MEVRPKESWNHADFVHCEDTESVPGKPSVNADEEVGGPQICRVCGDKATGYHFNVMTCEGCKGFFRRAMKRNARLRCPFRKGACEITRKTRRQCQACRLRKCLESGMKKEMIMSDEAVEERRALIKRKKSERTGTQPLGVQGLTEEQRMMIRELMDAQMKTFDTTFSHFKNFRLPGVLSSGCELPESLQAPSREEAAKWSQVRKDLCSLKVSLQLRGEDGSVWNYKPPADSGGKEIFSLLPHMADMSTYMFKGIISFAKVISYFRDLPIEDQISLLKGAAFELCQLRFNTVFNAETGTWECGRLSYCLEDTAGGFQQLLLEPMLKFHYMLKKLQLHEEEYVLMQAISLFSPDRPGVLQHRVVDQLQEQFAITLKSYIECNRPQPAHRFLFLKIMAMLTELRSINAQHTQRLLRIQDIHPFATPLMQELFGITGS

BXPC-3 [3] = assay: Antiproliferative activity against human BXPC-3 cells assessed as effect on cell viability; assay type: functional, cell-based
U-87 MG = assay: Antiproliferative activity against human U-87 MG cells assessed as effect on cell viability; assay type: functional, cell-based, U-87MG ATCC
DOHH-2 = assay: Antiproliferative activity against human DOHH-2 cells assessed as effect on cell viability; assay type: functional, cell-based
[4] = molecular target: Voltage-gated inwardly rectifying potassium channel KCNH2 (Homo sapiens, UniProt Q12809); assay: Inhibition of human ERG by binding assay
[5] = Solubility of compound in PBS buffer at pH 7.4
[6] = Metabolic stability in rat hepatocytes assessed as intrinsic clearance measured per 10^6 cells; assay type: ADME, cell-based, Hepatocyte; conditions: read-out: CLH
[7] = Protein binding in human plasma assessed as unbound fraction by ultracentrifugation
[8] = Protein binding in dog plasma assessed as unbound fraction by ultracentrifugation
[9] = Toxicity in female rat up to 25 mg/kg, po administered as single dose for 14 days; assay type: organism-based; conditions: in vivo, 336 h, time 14 day
[10] = Passive permeability in MDCK-II cells at 0.1 to 10 uM; assay type: ADME, cell-based, Canis lupus familiaris; conditions: dog, dose 0.1-10 µM, read-out: permeability
[11] = Efflux ratio in MDCK-II cells; conditions: dog
[12] = Unbound brain-to-plasma concentration ratio in male Sprague-Dawley rat at 25 mg/kg, po administered as single dose; assay type: ADME, organism-based; conditions: read-out: K(p,uu,brain)
[13] = Unbound brain-to-plasma concentration ratio in female Sprague-Dawley rat at 75 mg/kg, po administered as single dose; assay type: ADME, organism-based; conditions: read-out: K(p,uu,brain)
[14] = molecular target: Protein arginine N-methyltransferase 5 (Homo sapiens) (UniProt O14744); assay: In vivo inhibition of PRMT5 in athymic nude mouse xenografted with human HCT-116 cells harboring wildtype MTAP assessed as decrease in SDMA level in tumor at 3 mg/kg, po administered once daily for 4 days and measured 4 hrs post last dose by ELISA relative to control; assay type: functional, organism-based; conditions: time 4.0 day
[15] = molecular target: Protein arginine N-methyltransferase 5 (Homo sapiens) (UniProt O14744); assay: In vivo inhibition of PRMT5 in athymic nude mouse xenografted with human HCT-116 cells harboring wildtype MTAP assessed as decrease in SDMA level in tumor at 10 mg/kg, po administered once daily for 4 days and measured 4 hrs post last dose by ELISA relative to control; assay type: functional, organism-based; conditions: time 4.0 day
[16] = molecular target: Protein arginine N-methyltransferase 5 (Homo sapiens) (UniProt O14744); assay: In vivo inhibition of PRMT5 in athymic nude mouse xenografted with MTAP-deleted human HCT-116 cells assessed as decrease in SDMA level in tumor at 100 mg/kg, po administered once daily for 4 days and measured 4 hrs post last dose by ELISA relative to control; assay type: functional, organism-based; conditions: time 4.0 day
HCT-116 = assay: Antitumor activity against MTAP-deleted human HCT-116 cells xenografted in female athymic nude mouse model assessed as tumor growth inhibition at 10 mg/kg, po administered once daily for 14 days relative to control; assay type: functional; conditions: HCT-116, 336 h, time 14 day, read-out: TGI
[17] = Toxicity in female athymic nude mouse xenografted with human HCT-116 cells harboring wildtype MTAP assessed as body weight change at 3 to 100 mg/kg, po administered once daily for 14 days; assay type: organism-based; conditions: in vivo, 336 h, dose 3-100 mg/kg, time 14 day
BXPC-3 [18] = assay: Antitumor activity against MTAP-deleted human BXPC-3 cells xenografted in athymic nude mouse model assessed as tumor growth inhibition at 10 mg/kg, po administered once daily for 26 days and measured 24 hrs post last dose relative to control; assay type: functional; conditions: BXPC-3, 648 h, time 27 day, read-out: TGI
BXPC-3 [19] = assay: Antitumor activity against MTAP-deleted human BXPC-3 cells xenografted in athymic nude mouse model assessed as tumor growth inhibition at 100 mg/kg, po administered once daily for 26 days and measured 24 hrs post last dose relative to control; assay type: functional; conditions: BXPC-3, 648 h, time 27 day, read-out: TGI
[20] = Antitumor activity against MTAP-deleted human U-87 MG cells xenografted in female athymic nude mouse model assessed as tumor growth inhibition at 300 mg/kg, po administered once daily for 14 days and measured 24 hrs post last dose relative to control; assay type: functional, U-87MG ATCC; conditions: 360 h, time 15 day, read-out: TGI
[21] = molecular target: Protein arginine N-methyltransferase 5 (Homo sapiens) (UniProt O14744); assay: In vivo inhibition of PRMT5 in female athymic nude mouse xenografted with MTAP-deleted human U-87 MG cells assessed as decrease in SDMA level in tumor at 10 mg/kg, po administered once daily for 14 days and measured 2 to 8 hrs post last dose by ELISA relative to control; assay type: functional, organism-based; conditions: time 338-344 hrs
in vivo = conditions: Sprague-Dawley, rat, po, 2 mg/kg, pH 2

Sequence of Protein arginine N-methyltransferase 5 (Homo sapiens) (O14744 whole entry): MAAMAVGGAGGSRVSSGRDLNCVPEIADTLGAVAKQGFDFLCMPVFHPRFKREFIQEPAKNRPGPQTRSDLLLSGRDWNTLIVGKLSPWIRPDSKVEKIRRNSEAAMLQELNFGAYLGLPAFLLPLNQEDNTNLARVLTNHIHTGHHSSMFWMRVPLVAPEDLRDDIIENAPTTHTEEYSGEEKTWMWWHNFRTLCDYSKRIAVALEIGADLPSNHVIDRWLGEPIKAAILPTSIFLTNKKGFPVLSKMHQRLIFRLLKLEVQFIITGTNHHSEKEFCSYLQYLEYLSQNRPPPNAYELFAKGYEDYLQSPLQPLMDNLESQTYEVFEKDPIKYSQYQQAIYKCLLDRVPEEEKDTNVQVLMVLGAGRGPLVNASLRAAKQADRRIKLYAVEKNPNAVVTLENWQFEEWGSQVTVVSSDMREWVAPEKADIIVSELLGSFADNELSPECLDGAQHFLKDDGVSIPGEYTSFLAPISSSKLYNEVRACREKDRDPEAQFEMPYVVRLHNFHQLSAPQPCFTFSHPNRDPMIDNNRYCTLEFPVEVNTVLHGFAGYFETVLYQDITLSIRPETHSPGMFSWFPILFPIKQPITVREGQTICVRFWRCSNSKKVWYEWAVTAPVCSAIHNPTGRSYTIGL
Sequence of Voltage-gated inwardly rectifying potassium channel KCNH2 (Q12809 whole entry): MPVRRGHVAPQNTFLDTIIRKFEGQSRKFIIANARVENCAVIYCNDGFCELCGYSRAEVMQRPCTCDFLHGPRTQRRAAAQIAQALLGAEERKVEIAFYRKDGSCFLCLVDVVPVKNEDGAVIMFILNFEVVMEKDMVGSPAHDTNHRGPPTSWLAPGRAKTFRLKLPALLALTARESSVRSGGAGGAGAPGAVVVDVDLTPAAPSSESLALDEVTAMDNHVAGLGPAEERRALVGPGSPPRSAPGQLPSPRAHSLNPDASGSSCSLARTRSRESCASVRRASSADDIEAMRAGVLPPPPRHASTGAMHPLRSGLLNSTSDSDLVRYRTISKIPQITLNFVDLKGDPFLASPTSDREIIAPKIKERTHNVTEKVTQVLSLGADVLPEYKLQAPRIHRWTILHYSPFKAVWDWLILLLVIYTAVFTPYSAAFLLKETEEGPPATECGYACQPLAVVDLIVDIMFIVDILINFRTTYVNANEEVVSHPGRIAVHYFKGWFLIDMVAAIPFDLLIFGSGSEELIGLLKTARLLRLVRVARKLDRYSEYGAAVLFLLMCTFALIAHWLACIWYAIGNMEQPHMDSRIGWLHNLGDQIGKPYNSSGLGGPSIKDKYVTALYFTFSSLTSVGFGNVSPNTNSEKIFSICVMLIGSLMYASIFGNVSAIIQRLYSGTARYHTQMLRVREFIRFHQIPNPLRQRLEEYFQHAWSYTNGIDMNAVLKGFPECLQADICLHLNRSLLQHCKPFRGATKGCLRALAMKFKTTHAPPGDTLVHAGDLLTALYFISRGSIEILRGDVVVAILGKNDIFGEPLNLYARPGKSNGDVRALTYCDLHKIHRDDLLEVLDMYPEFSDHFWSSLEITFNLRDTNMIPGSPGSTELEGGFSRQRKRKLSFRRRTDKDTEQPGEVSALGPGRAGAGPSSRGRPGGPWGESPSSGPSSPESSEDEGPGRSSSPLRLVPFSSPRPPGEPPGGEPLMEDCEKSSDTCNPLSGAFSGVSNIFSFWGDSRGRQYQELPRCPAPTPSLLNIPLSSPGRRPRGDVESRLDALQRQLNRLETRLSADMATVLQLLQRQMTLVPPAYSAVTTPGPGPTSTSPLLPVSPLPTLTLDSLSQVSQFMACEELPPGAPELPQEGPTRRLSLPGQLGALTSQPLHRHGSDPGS

Nc1nc2cnc(C(=O)N3CCOC[C@@H]3c3ccc(C(F)(F)F)cc3)cc2c2c1COC2
microsomal CLint at 0.5 µM [1]: 24 µL/min/mg
Activity [2]: < 20%
IC50 (BXPC-3 [3]): 218 nM
IC50 (U-87 MG): 357 nM
IC50 (DOHH-2): 51 nM
IC50 [4]: > 29000 nM
solubility [5]: 257 µM (≈ 114 µg/mL)
hepatocyte CLint [6]: 31 µL/min/1e6 cells
fraction unbound [7]: 0.11
fraction unbound [8]: 0.08
Activity [9]: Non-toxic
Papp at up to 10 µM [10]: 33 ×10⁻⁶ cm/s
efflux ratio [11]: 3
Kp uu [12]: 0.15
Kp uu [13]: 0.12
inhibition [14]: 12%
inhibition [15]: 32%
inhibition [16]: 71%
inhibition in vivo at 10 mg/kg (HCT-116): 55%
Activity [17]: Non-toxic
inhibition in vivo at 10 mg/kg (BXPC-3 [18]): 19%
inhibition in vivo at 100 mg/kg (BXPC-3 [19]): 96%
inhibition in vivo at 300 mg/kg [20]: 88%
inhibition [21]: 68%
bioavailability (in vivo): 60%

From ChEMBL document CHEMBL6109134, “Discovery of AMG 193, an MTA-Cooperative PRMT5 Inhibitor for the Treatment of MTAP-Deleted Cancers” (J Med Chem, 2025)
